From publication PMC9879991, “Biomolecular condensates formed by designer minimalistic peptides” (Nature Communications, 2023)
No end group written: not given here.

Legend:
[1] = Phase diagram in citrate / tris / ammonium bicarbonate buffers; assay type: physicochemical; conditions: 20 mM citrate (pH 3-7)/tris (pH 7-9)/ammonium bicarbonate (pH 9-12), 0.2 M NaCl, room temperature
Description: Since this analysis is highly sensitive to pH fluctuation, we also created phase diagrams for all peptides using three different buffers that are optimized for specific pH range: citrate buffer for pH 3–7, tris buffer for pH 7–9 and ammonium bicarbonate for pH 9–12 (Supplementary Fig. 1). While the trend in these phase diagrams is similar to that obtained only in tris buffer, the critical pH for LLPS is lower in citrate buffer for all LLPS-promoting peptides (Supplementary Fig. 1).
150 μl of 5 mM, 8 mM, 10 mM, 15 mM, 20 mM, and 30 mM peptide solutions were prepared in either 20 mM tris buffer or 20 mM of the following three buffers: citrate buffer for pH 3–7 tris buffer for pH 7–9 and ammonium bicarbonate for pH 9–12, with 0.2 M NaCl. The pH was increased gradually until a turbidity appeared and measured as described below. All measurements were performed at room temperature. Data points represent averages of three independent measurements. Turbidity of 35 μl samples was estimated in triplicates from sample absorbance at λ = 500 nm as described below.
Supplementary Figure 1. Phase diagram of the peptides as a function of peptide concentration and pH, in different buffers: citrate buffer for pH 3-7, tris buffer for pH 7-9, and ammonium bicarbonate buffer for pH 9-12. 0.2 M NaCl was added to all samples, measurements were obtained at room […]
temperature. […] Values represent average pH of n=3 independent measurements, data are presented as mean values +/- SD. […]

GFP = target: T1, GFP (Aequorea victoria, UniProt P42212); assay: Encapsulation efficiency of peptide droplets, GFP payload; assay type: physicochemical; conditions: C initial 50 µg/ml, 20 mM peptide; for %EE: 20 mM Tris + 0.2 M NaCl pH 8, 15,000 g 10 min, supernatant fluorescence Ex 395/Em 509 nm
T1 construct: purchased Abcam (purchased from Zotal)
Excerpt: Next, we studied how peptide composition affects the encapsulation efficiency of the droplets by using GFP, rhodamine B, and fluorescein as fluorescent payload model systems (Fig. 4). We analyzed the encapsulation efficiency of the fluorescent payloads by using both confocal microscopy and absorbance measurements of the payloads in the dilute vs. the condensed phase (Fig. 4a–c). […] WGR-1 has the highest EE of fluorescein. In addition to π-π interactions, WGR-1 might form hydrogen bonding with the hydroxyl groups or electrostatic interactions with the deprotonated carboxylic acid of the dye.
Stock solutions (1 mM) of the fluorescein and rhodamine B dye molecules were prepared in 20 mM Tris buffer. Coacervate solutions of 20 mM peptide were prepared in 20 mM Tris + 0.2 M NaCl at pH 8. From these, a volume of 148.5 µl was mixed with 1.5 µl of dye solution in a 1.5 ml Eppendorf tube and pipetted. After 10 min the samples were centrifuged at 15,000 × g for 10 min. A volume of 120 μl from the supernatant was collected and vortexed and then the absorbance of 35 μl triplicates was measured (at λ = 490 nm for fluorescein and λ = 555 nm for RhB) in a 384 well black plate by Biotek H1 synergy plate reader (purchased from Lumitron, Israel). For GFP, a 7.5 µl of 20 mM Tris buffer to a 7.5 μl GFP aliquot from the purchased stock solution. The 15 µl of GFP solution was added to 135 µl of peptide solution and was mixed in a 1.5 ml Eppendorf tube and pipetted. The concentration of GFP at the supernatant was measured via fluorescence. All experiments were performed in triplicate. The concentration of the supernatant solutions determinate by calibration curves. Imaging was made to 30 μl of uncentrifuged samples. Efficiency of encapsulation (%EE) was calculated using Eq. 2. 2 %EE=CT−Csup/CT

Sequence: WGRGRGRGWPGVGY [WGR-1]
- pH at which turbidity (LLPS) appears ([1]; 8 mM peptide, replicate 1): 8.43
- pH at which turbidity (LLPS) appears ([1]; 8 mM peptide, replicate 2): 8.47
- pH at which turbidity (LLPS) appears ([1]; 8 mM peptide, replicate 3): 8.55
- pH at which turbidity (LLPS) appears ([1]; 10 mM peptide, mean of n=3): 6.79
- pH at which turbidity (LLPS) appears ([1]; 10 mM peptide, replicate 1): 6.32
- pH at which turbidity (LLPS) appears ([1]; 10 mM peptide, replicate 2): 7.04
- pH at which turbidity (LLPS) appears ([1]; 10 mM peptide, replicate 3): 7.01
- pH at which turbidity (LLPS) appears ([1]; 15 mM peptide, mean of n=3): 6.34
- pH at which turbidity (LLPS) appears ([1]; 15 mM peptide, replicate 1): 6.41
- pH at which turbidity (LLPS) appears ([1]; 15 mM peptide, replicate 2): 6.41
- pH at which turbidity (LLPS) appears ([1]; 15 mM peptide, replicate 3): 6.2
- pH at which turbidity (LLPS) appears ([1]; 20 mM peptide, mean of n=3): 4.96
- pH at which turbidity (LLPS) appears ([1]; 20 mM peptide, replicate 1): 5.1
- pH at which turbidity (LLPS) appears ([1]; 20 mM peptide, replicate 2): 4.89
- pH at which turbidity (LLPS) appears ([1]; 20 mM peptide, replicate 3): 4.89
- pH at which turbidity (LLPS) appears ([1]; 30 mM peptide, replicate 1): 4.78
- pH at which turbidity (LLPS) appears ([1]; 30 mM peptide, replicate 2): 4.27
- pH at which turbidity (LLPS) appears ([1]; 30 mM peptide, replicate 3): 4.52
- %EE (GFP; replicate 1, given as fraction): 0.8616
- %EE (GFP; replicate 2, given as fraction): 0.9526
- %EE (GFP; replicate 3, given as fraction): 0.9328
- Encapsulation efficiency (EE) (GFP; 20 mM Tris + 0.2 M NaCl pH 8, supernatant fluorescence, average of replicates, in percent): 91.5647%
